The source of these data is patent publication US12018023B2 (NERVIANO MEDICAL SCIENCES S.R.L., priority 2018, dated 2024).

The target in one test is T1, IDH1^R132C (Homo sapiens, UniProt O75874, R132C).
T1 construct: purchased not specified
The test can be described thus: NADPH depletion assay, IDH1 R132C. Format: biochemical. On the procedure: (§1) IDH mutated enzyme activity converting alpha-ketoglutarate to 2-hydroxyglutaric acid is measured using a NADPH depletion assay. In the assay the remaining cofactor is measured at the end of the reaction with the addition of a catalytic excess of diaphorase and resazurin, to generate a fluorescent signal in proportion to the amount of NADPH remaining. IDH1 WT enzyme as well as mutated isoforms IDH1^R132H, IDH1^R132C, and IDH^2R172K enzymes are commercially available proteins (see e.g. Sino Biological, Abcam, Active Motif or Creative BioMart).
(§2) IDH1^R132H homodimer enzyme are diluted to 8 nM, in 10 μL of Assay Buffer (150 mM NaCl, 50 mM Tris-HCl pH 7.6, 10 mM MgCl2, 0.001% Triton X-100, 4 mM β-mercaptoethanol); 0.2 uL of test compound, previously serially diluted 1 to 3, >10 experimental points from 1 mM in DMSO, is added and the mixture is incubated for 15 minutes at room temperature. The reaction is started with the addition of 10 μL of Substrate Mix (12 uM NADPH, 3.4 mM alpha-ketoglutarate in Assay Buffer) and the mixture is incubated for 60 minutes at room temperature. The reaction is terminated with the addition of 5 μl of Detection Buffer (100 μg/mL diaphorase, 30 μM resazurin, in IX Assay Buffer), and is incubated for 15 minute before reading on a ViewLux as platereader at Ex544/Em590.
Compounds are assayed for their activity against IDH1^R132C following the same assay as above with the following modifications: IDH1^R132C and alpha-ketoglutarate final concentrations in the Assay Buffer is 2 nM and 0.14 mM, respectively.

In test [1] the target is T2, IDH1^R132H homodimer enzyme (Homo sapiens, UniProt O75874, R132H).
T2 construct: purchased not specified
The test can be described thus: NADPH depletion assay, IDH1 R132H. It is filed as biochemical. How it is done:
as §1, §2

T1 sequence (O75874 whole entry R132C): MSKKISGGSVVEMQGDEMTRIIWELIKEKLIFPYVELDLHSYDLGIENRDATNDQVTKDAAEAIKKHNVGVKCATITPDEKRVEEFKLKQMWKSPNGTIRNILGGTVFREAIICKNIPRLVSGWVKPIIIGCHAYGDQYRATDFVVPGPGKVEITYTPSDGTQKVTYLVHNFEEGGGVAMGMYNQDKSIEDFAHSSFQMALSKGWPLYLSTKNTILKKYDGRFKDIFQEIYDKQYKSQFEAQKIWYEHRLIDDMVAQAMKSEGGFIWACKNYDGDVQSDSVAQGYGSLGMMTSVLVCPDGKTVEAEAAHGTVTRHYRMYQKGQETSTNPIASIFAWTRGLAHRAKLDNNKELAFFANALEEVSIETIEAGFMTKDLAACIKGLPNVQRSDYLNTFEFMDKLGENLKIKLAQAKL
T2 sequence (O75874 whole entry R132H): as the sequence (O75874 whole entry R132C) above, with C132H counted along it

Regarding `C[C@H](Nc1ncc2ccc(=O)n(Cc3c(F)cccc3F)c2n1)c1ccc(C(=O)NC2CCN(C)CC2)cc1` [cpd 76, 4-[(1S)-1-{[8-(2,6-difluorobenzyl)-7-oxo-pyrido[2,3-d]pyrimidin-2-yl]amino}ethyl]-N-(1-methylpiperidin-4-yl)benzamide], the IC50 against IDH1^R132C turned out to be 3630 nM; in test [1] it was 2380 nM.

Consider `CC(C)[C@H](C)n1c(=O)ccc2cnc(N[C@@H](C)c3ccc(N4CCN(C(=O)OCc5ccccc5)CC4)cc3)nc21` [cpd 174, Benzyl-4-{4-[(1S)-1-({8-[(2S)-3-methylbutan-2-yl]-7-oxo-7,8-dihydropyrido[2,3-d]pyrimidin-2-yl}amino)ethyl]phenyl}piperazine-1-carboxylate], for which the IC50 against IDH1^R132C is 32 nM; in test [1], 42 nM.

In the case of `CC(C)[C@H](C)n1c(=O)ccc2cnc(N[C@@H](C)c3ccc(C4=CCN(C(=O)C5CC5)CC4)cn3)nc21` [cpd 195, 2-({(1S)-1-[1′-(cyclopropylcarbonyl)-1′,2′,3′,6′-tetrahydro-3,4′-bipyridin-6-yl]ethyl}amino)-8-[(2S)-3-methylbutan-2-yl]pyrido[2,3-d]pyrimidin-7(8H)-one], the IC50 on IDH1^R132C stood at 184 nM; in test [1], 593 nM.

As to `C[C@@H]1CN(Cc2ccc([C@H](C)Nc3ncc4ccc(=O)n([C@@H](C)C(F)(F)F)c4n3)cc2)C[C@H](C)O1` [cpd 164, 2-{[(1S)-1-(4-{[(2R,6S)-2,6-dimethylmorpholin-4-yl]methyl}phenyl)ethyl]amino}-8-[(2S)-1,1,1-trifluoropropan-2-yl]pyrido[2,3-d]pyrimidin-7(8H)-one], the half-maximal inhibitory concentration (IC50) at IDH1^R132C is 406 nM; in test [1] it was 759 nM.

Regarding `C=CC(=O)N1CCN(Cc2ccc([C@H](C)Nc3nc(NC)c4ccc(=O)n(CC(C)(C)C)c4n3)cc2)CC1` [cpd 202, 2-{[(1S)-1-{4-[(4-acryloylpiperazin-1-yl)methyl]phenyl}ethyl]amino}-8-(2,2-dimethylpropyl)-4-(methylamino) pyrido[2,3-d]pyrimidin-7(8H)-one], the IC50 against IDH1^R132C stood at 104 nM; in test [1], 666 nM.

For `CCOC(=O)C(C)n1c(=O)ccc2cnc(N[C@@H](C)c3ccc(CN4CCCC(F)(F)C4)cc3)nc21` (stereo partly drawn) [cpd 63, ethyl 2-[2-{[(1S)-1-{4-[(3,3-difluoropiperidin-1-yl)methyl]phenyl}ethyl]amino}-7-oxopyrido[2,3-d]pyrimidin-8(7H)-yl]propanoate], the half-maximal inhibitory concentration (IC50) is 123 nM at IDH1^R132C and 290 nM in test [1].

As for `C[C@H](Nc1ncc2ccc(=O)n(CC(C)(C)C)c2n1)c1ccc(S(C)(=O)=O)cc1` [cpd 137, 8-(2,2-dimethylpropyl)-2-({(1S)-1-[4-(methylsulfonyl)phenyl]ethyl}amino)pyrido[2,3-d]pyrimidin-7(8H)-one], the half-inhibitory concentration (IC50) was found to be 1300 nM against IDH1^R132C and 3470 nM in test [1].

On to `C[C@H](Nc1ncc2ccc(=O)n(CC(C)(C)O)c2n1)c1ccc(CN2CCC(F)(F)CC2)cc1` [cpd 119, 2-{(S)-1-[4-(4,4-Difluoro-piperidin-1-ylmethyl)-phenyl]-ethylamino}-8-(2-hydroxy-2-methyl-propyl)-8H-pyrido [2,3-d]pyrimidin-7-one], for which the IC50 at IDH1^R132C turned out to be 1160 nM; in test [1], 2230 nM.

For `CC(C)[C@H](C)n1c(=O)ccc2cnc(N[C@@H](C)c3ccc(N4CCOCC4)cc3)nc21` [cpd 173, 8-[(2S)-3-methylbutan-2-yl]-2-({(1S)-1-[4-(morpholin-4-yl)phenyl]ethyl}amino)pyrido[2,3-d]pyrimidin-7(8H)-one], the half-maximal inhibitory concentration (IC50) at IDH1^R132C is 144 nM; in test [1], 575 nM.

On to `C[C@H](Nc1ncc2ccc(=O)n(CC(C)(C)C)c2n1)c1ccc(C(=O)NC2CCC(F)(F)CC2)cc1` [cpd 79, N-(4,4-difluorocyclohexyl)-4-[(1S)-1-{[8-(2,2-dimethylpropyl)-7-oxo-pyrido[2,3-d]pyrimidin-2-yl]amino}ethyl]benzamide], for which the IC50 turned out to be 357 nM on IDH1^R132C and 529 nM in test [1].

Take `C[C@H](Nc1ncc2ccc(=O)n(CC(C)(C)C)c2n1)c1ccc(C(=O)NC2CCCCC2)cc1` [cpd 81, N-cyclohexyl-4-[(1S)-1-{[8-(2,2-dimethylpropyl)-7-oxo-pyrido[2,3-d]pyrimidin-2-yl]amino}ethyl] benzamide]: the half-inhibitory concentration (IC50) is 172 nM against IDH1^R132C and 288 nM in test [1].

Turning to `C[C@H](Nc1ncc2ccc(=O)n(Cc3ccc(O)cc3)c2n1)c1ccc(Cl)cc1` [cpd 72, 2-{[(1S)-1-(4-chlorophenyl)ethyl]amino}-8-(4-hydroxybenzyl)pyrido[2,3-d]pyrimidin-7(8H)-one], the IC50 was 1240 nM against IDH1^R132C and 2590 nM in test [1].

As to `C[C@H](Nc1ncc2ccc(=O)n(CC(C(F)(F)F)C(F)(F)F)c2n1)c1ccc(CN2CCC(F)(F)CC2)cc1` [cpd 108, 2-{[(1S)-1-{4-[(4,4-difluoropiperidin-1-yl)methyl]phenyl)ethyl]amino)-8-[3,3,3-trifluoro-2-(trifluoromethyl)propyl]pyrido[2,3-d]pyrimidin-7(8H)-one], the IC50 was determined as 307 nM at IDH1^R132C and 459 nM in test [1].

Take `C[C@@H]1CN(Cc2ccc([C@H](C)Nc3ncc4ccc(=O)n([C@@H](C)C5CC5)c4n3)cc2F)C[C@H](C)O1` [cpd 171, 8-[(1S)-1-cyclopropylethyl]-2-{[(1S)-1-(4-{[(2R,6S)-2,6-dimethylmorpholin-4-yl]methyl}-3-fluorophenyl)ethyl]amino}pyrido[2,3-d]pyrimidin-7(8H)-one]: the half-maximal inhibitory concentration (IC50) turned out to be 55 nM against IDH1^R132C and 169 nM in test [1].

With `CC(C)[C@H](C)n1c(=O)ccc2cnc(N[C@@H](C)c3ccc(OC4CCNCC4)cc3)nc21` [cpd 155, 8-((S)-1,2-Dimethyl-propyl)-2-{(S)-1-[4-(piperidin-4-yloxy)-phenyl]-ethylamino}-8H-pyrido[2,3-d]pyrimidin-7-one], the IC50 was found to be 147 nM on IDH1^R132C and 455 nM in test [1].

Take `CC(C)[C@H](C)n1c(=O)ccc2cnc(N[C@@H](C)c3ccc(N4CCNCC4)cc3)nc21` [cpd 176, 8-[(2S)-3-methylbutan-2-yl]-2-({(1S)-1-[4-(piperazin-1-yl)phenyl]ethyl}amino)pyrido[2,3-d]pyrimidin-7(8H)-one]: the IC50 on IDH1^R132C was found to be 1910 nM; in test [1], 3510 nM.

Turning to `CC(Nc1ncc2ccc(=O)n(CC(C)(C)C)c2n1)C12CC3CC(CC(C3)C1)C2` (stereo not drawn) [cpd 44, 8-(2,2-dimethylpropyl)-2-{[1-(tricyclo[3.3.1.1^3,7]dec-1-yl)ethyl]amino}pyrido[2,3-d]pyrimidin-7(8H)-one], the IC50 came out at 811 nM at IDH1^R132C and 1090 nM in test [1].

For `C[C@H](Nc1ncc2ccc(=O)n(CC(C)(C)C(N)=O)c2n1)c1ccc2ccccc2c1` [cpd 122, 2,2-dimethyl-3-[2-{[(1S)-1-(naphthalen-2-yl)ethyl]amino}-7-oxopyrido[2,3-d]pyrimidin-8(7H)-yl]propanamide], the concentration for half-maximal inhibition (IC50) at IDH1^R132C amounted to 386 nM; in test [1], 717 nM.

Take `C[C@H](Nc1ncc2ccc(=O)n(CC(C)(C)CO)c2n1)c1ccc(CN2CCC(F)(F)CC2)cc1` [cpd 55, 2-{(S)-1-[4-(4,4-Difluoro-piperidin-1-ylmethyl)-phenyl]-ethylamino}-8-(3-hydroxy-2,2-dimethyl-propyl)-8H-pyrido[2,3-d]pyrimidin-7-one]: the figures for the IC50 (against IDH1^R132C; in test [1]) were 65 nM and 137 nM, respectively.

`C[C@H](Nc1ncc2ccc(=O)n(CC(C)(C)C)c2n1)c1ccc(C(=O)NC2CC(F)(F)C2)cc1` [cpd 85, N-(3,3-difluorocyclobutyl)-4-[(1S)-1-{[8-(2,2-dimethylpropyl)-7-oxo-pyrido[2,3-d]pyrimidin-2-yl]amino}ethyl]benzamide]: the 50% inhibitory concentration (IC50) at IDH1^R132C stood at 1460 nM; in test [1] it was 1770 nM.

As for `CCn1c(=O)ccc2cnc(N[C@@H](C)c3ccc(CN4CCN(C(=O)OC(C)(C)C)CC4)cc3)nc21` [cpd 185, tert-butyl 4-(4-{(1S)-1-[(8-ethyl-7-oxo-7,8-dihydropyrido[2,3-d]pyrimidin-2-yl)amino]ethyl}benzyl)piperazine-1-carboxylate], the IC50 against IDH1^R132C came to 1270 nM; in test [1] it was 2370 nM.

In the case of `CC(C)(C)Cn1c(=O)ccc2cnc(NC(C)(C)c3ccccc3)nc21` [cpd 41, 8-(2,2-dimethylpropyl)-2-[(2-phenylpropan-2-yl)amino]pyrido[2,3-d]pyrimidin-7(8H)-one], the 50% inhibitory concentration (IC50) amounted to 1410 nM on IDH1^R132C and 2460 nM in test [1].

As to `CCN1CCN(c2ccc([C@H](C)Nc3ncc4ccc(=O)n([C@@H](C)C(C)C)c4n3)cc2)CC1` [cpd 177, 2-({(1S)-1-[4-(4-ethylpiperazin-1-yl)phenyl]ethyl}amino)-8-[(2S)-3-methylbutan-2-yl]pyrido[2,3-d]pyrimidin-7(8H)-one], the values for the IC50 (on IDH1^R132C; in test [1]) were 401 nM and 978 nM, respectively.

Regarding `C[C@H](Nc1ncc2ccc(=O)n(Cc3ccccc3)c2n1)c1nc(-c2ccc(Cl)cc2)no1` [cpd 53, 8-benzyl-2-({(1S)-1-[3-(4-chlorophenyl)-1,2,4-oxadiazol-5-yl]ethyl}amino)pyrido[2,3-d]pyrimidin-7(8H)-one], the IC50 turned out to be 529 nM on IDH1^R132C and 941 nM in test [1].
